According to ChEMBL document CHEMBL3400128, “Design, synthesis and biological evaluation of functionalized phthalimides: a new class of antimalarials and inhibitors of falcipain-2, a major hemoglobinase of malaria parasite” (Bioorg Med Chem, 2015):
Values joined by “and” are separate entries in the source; they are usually repeats but may differ in a detail not shown here. Equal entries are not always repeated. Active and inactive are the calls of the source. The rule behind the calls is not given here.

Experiments:
Plasmodium falciparum [1] = assay: Antimalarial activity against chloroquine-sensitive Plasmodium falciparum 3D7 infected in human erythrocyte assessed as parasite viability after 48 hrs by [3H]hypoxanthine incorporation based liquid scintillation counting analysis; assay type: functional, organism-based
Plasmodium falciparum [2] = assay: Antimicrobial activity against ring stage trophozoite chloroquine-sensitive Plasmodium falciparum 3D7 infected in human erythrocyte assessed as abnormal morphologies at 21.8 uM after 16 hrs by Giemsa staining based light microscopy; assay type: functional, organism-based
Plasmodium falciparum [3] = assay: Antimicrobial activity against blood stage chloroquine-sensitive Plasmodium falciparum 3D7 infected in human erythrocyte assessed as inhibition of invasion event of merozoites after 6 hrs by Giemsa staining based light microscopy; assay type: functional, organism-based
Plasmodium falciparum [4] = assay: Antimicrobial activity against chloroquine-resistant Plasmodium falciparum 7G8 infected in human erythrocyte assessed as parasite viability after 48 hrs by [3H]hypoxanthine incorporation based liquid scintillation counting analysis; assay type: functional
Plasmodium falciparum [5] = assay: Antimicrobial activity against blood stage chloroquine-sensitive Plasmodium falciparum 3D7 infected in human erythrocyte assessed as abnormal morphologies at 21.8 uM after 6 hrs by Giemsa staining based light microscopy; assay type: functional, organism-based
Plasmodium falciparum [6] = assay: Antimicrobial activity against ring stage trophozoite chloroquine-sensitive Plasmodium falciparum 3D7 infected in human erythrocyte assessed as abnormal morphologies at 43.68 uM after 16 hrs by Giemsa staining based light microscopy; assay type: functional, organism-based
Plasmodium falciparum [7] = assay: Antimalarial activity against chloroquine-sensitive Plasmodium falciparum 3D7 infected in human erythrocyte assessed as parasite viability after 90 hrs by [3H]hypoxanthine incorporation based liquid scintillation counting analysis; assay type: functional, organism-based
Plasmodium falciparum [8] = assay: Antimicrobial activity against blood stage chloroquine-sensitive Plasmodium falciparum 3D7 infected in human erythrocyte assessed as abnormal morphologies at 43.68 uM after 6 hrs by Giemsa staining based light microscopy; assay type: functional, organism-based
[9] = Toxicity in human erythrocytes assessed as hemolytic activity up to 50 ug/ml after 42 hrs by spectrophotometric analysis; assay type: cell-based; details: erythrocyte
Plasmodium falciparum [10] = assay: Antimalarial activity against chloroquine-sensitive Plasmodium falciparum 3D7 infected in human erythrocyte assessed as parasite viability after 60 hrs by [3H]hypoxanthine incorporation based liquid scintillation counting analysis; assay type: functional, organism-based
[11] = target: T1, Falcipain 2 (Plasmodium falciparum) (UniProt Q9N6S8); assay: Inhibition of Plasmodium falciparum Falcipain 2 at 500 nM by hemoglobin hydrolysis assay
T1 sequence (whole entry): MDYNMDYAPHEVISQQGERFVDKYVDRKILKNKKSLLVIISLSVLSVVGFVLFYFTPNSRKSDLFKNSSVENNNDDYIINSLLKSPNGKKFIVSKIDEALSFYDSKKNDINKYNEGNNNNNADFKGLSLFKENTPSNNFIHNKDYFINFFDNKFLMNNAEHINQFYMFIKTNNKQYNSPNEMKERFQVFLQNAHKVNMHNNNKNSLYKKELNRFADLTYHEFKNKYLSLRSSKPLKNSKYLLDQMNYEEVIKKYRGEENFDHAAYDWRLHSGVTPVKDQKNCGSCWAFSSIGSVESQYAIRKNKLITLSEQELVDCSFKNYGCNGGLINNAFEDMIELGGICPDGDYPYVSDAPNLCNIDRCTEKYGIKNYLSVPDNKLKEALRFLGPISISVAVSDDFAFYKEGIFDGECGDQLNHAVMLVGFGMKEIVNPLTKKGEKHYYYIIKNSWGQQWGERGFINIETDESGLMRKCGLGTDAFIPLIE

[12] = target: T1, Falcipain 2 (Plasmodium falciparum); assay: Inhibition of Plasmodium falciparum Falcipain 2 using Z-Leu-Arg-AMC substrate assessed as fluorogenic substrate hydrolysis
[13] = target: T1, Falcipain 2 (Plasmodium falciparum); assay: Inhibition of Plasmodium falciparum Falcipain 2 at 5 nM by hemoglobin hydrolysis assay
Plasmodium falciparum [14] = assay: Antimicrobial activity against chloroquine-sensitive Plasmodium falciparum 3D7 infected in human erythrocyte assessed as parasite viability at 6.25 to 25 ng/ml after 42 hrs by [3H]hypoxanthine incorporation based liquid scintillation counting analysis; assay type: functional, organism-based
Plasmodium falciparum [15] = assay: Antimicrobial activity against ring stage trophozoite chloroquine-sensitive Plasmodium falciparum 3D7 infected in human erythrocyte assessed as abnormal morphologies at 27.64 uM after 16 hrs by Giemsa staining based light microscopy; assay type: functional, organism-based
Plasmodium falciparum [16] = assay: Antimicrobial activity against blood stage chloroquine-sensitive Plasmodium falciparum 3D7 infected in human erythrocyte assessed as abnormal morphologies at 55.28 uM after 6 hrs by Giemsa staining based light microscopy; assay type: functional, organism-based
Plasmodium falciparum [17] = assay: Antimicrobial activity against chloroquine-sensitive Plasmodium falciparum 3D7 infected in human erythrocyte assessed as parasite viability after 42 hrs by [3H]hypoxanthine incorporation based liquid scintillation counting analysis in presence of 6.25 ng/ml; assay type: functional, organism-based
Plasmodium falciparum [18] = assay: Antimicrobial activity against blood stage chloroquine-sensitive Plasmodium falciparum 3D7 infected in human erythrocyte assessed as abnormal morphologies at 27.64 uM after 6 hrs by Giemsa staining based light microscopy; assay type: functional, organism-based
Plasmodium falciparum [19] = assay: Antimicrobial activity against chloroquine-sensitive Plasmodium falciparum 3D7 infected in human erythrocyte assessed as parasite viability after 42 hrs by [3H]hypoxanthine incorporation based liquid scintillation counting analysis in presence of 25 ng/ml; assay type: functional, organism-based
Plasmodium falciparum [20] = assay: Antimicrobial activity against chloroquine-sensitive Plasmodium falciparum 3D7 infected in human erythrocyte assessed as parasite viability after 42 hrs by [3H]hypoxanthine incorporation based liquid scintillation counting analysis in presence of 12.5 ng/ml; assay type: functional, organism-based
Plasmodium falciparum [21] = assay: Antimicrobial activity against ring stage trophozoite chloroquine-sensitive Plasmodium falciparum 3D7 infected in human erythrocyte assessed as abnormal morphologies at 55.28 uM after 16 hrs by Giemsa staining based light microscopy; assay type: functional, organism-based

## CC(C)[C@@H](C(=O)N1CCC(Cc2ccccc2)CC1)N1C(=O)c2ccccc2C1=O
Plasmodium falciparum [1]
  IC50: 19.5 µg/mL and 48.2 µM

## CC(C)C[C@@H](C(=O)N1CCOCC1)N1C(=O)c2ccccc2C1=O
Plasmodium falciparum [1]
  IC50: 46 µg/mL and 139 µM

## CC[C@@H](C)[C@@H](C(=O)N1CCCCC1)N1C(=O)c2ccccc2C1=O
Plasmodium falciparum [1]
  IC50: 35 µg/mL and 107 µM

## O=C([C@H](Cc1ccccc1)N1C(=O)c2ccccc2C1=O)N1CCC(Cc2ccccc2)CC1
Plasmodium falciparum [2]
  Activity: Active
Plasmodium falciparum [3]
  inhibition: Dose-dependent effect
Plasmodium falciparum [4]
  IC50: 13300 nM
Plasmodium falciparum [5]
  Activity: Active
Plasmodium falciparum [6]
  Activity: Active
Plasmodium falciparum [7]
  IC50: 3800 nM
Plasmodium falciparum [8]
  Activity: Active
Plasmodium falciparum [1]
  IC50: 5.5 µg/mL and 12.2 µM
[9]
  Activity: Non-toxic
Plasmodium falciparum [10]
  IC50: 5000 nM

## CC(C)[C@@H](C(=O)N1CCCCC1)N1C(=O)c2ccccc2C1=O
Plasmodium falciparum [1]
  IC50: 41 µg/mL and 130 µM

## O=C([C@H](Cc1ccccc1)N1C(=O)c2ccccc2C1=O)N1CCOCC1
[11]
  inhibition: Active
[12]
  inhibition: Active
[13]
  inhibition: Active
Plasmodium falciparum [1]
  IC50: 18 µg/mL and 49.4 µM

## C[C@@H]1CC[C@H]2[C@@H](C)C(=O)O[C@@H]3O[C@@]4(C)CC[C@@H]1[C@]32OO4 [ARTEMISININ]
Plasmodium falciparum [14]
  inhibition: inactive
Plasmodium falciparum [1]
  IC50: 0.045 µg/mL and 159 nM

## O=C([C@H](Cc1ccccc1)N1C(=O)c2ccccc2C1=O)N1CCCCC1
Plasmodium falciparum [1]
  IC50: 13 µg/mL and 36 µM

## CC(C)[C@@H](C(=O)N1CCCC1)N1C(=O)c2ccccc2C1=O
Plasmodium falciparum [1]
  IC50: 42.5 µg/mL and 142 µM

## CC(C)C[C@@H](C(=O)N1CCN(C(=O)[C@H](CC(C)C)N2C(=O)c3ccccc3C2=O)CC1)N1C(=O)c2ccccc2C1=O
Plasmodium falciparum [1]
  IC50: 61 µg/mL and 203 µM

## CC(C)C[C@@H](C(=O)N1CCCC1)N1C(=O)c2ccccc2C1=O
Plasmodium falciparum [1]
  IC50: 74.2 µg/mL and 236 µM

## CC[C@@H](C)[C@@H](C(=O)N1CCN(C(=O)[C@H]([C@H](C)CC)N2C(=O)c3ccccc3C2=O)CC1)N1C(=O)c2ccccc2C1=O
Plasmodium falciparum [3]
  inhibition: Dose-dependent effect
Plasmodium falciparum [4]
  IC50: 7210 nM
Plasmodium falciparum [15]
  Activity: Active
Plasmodium falciparum [16]
  Activity: Active
Plasmodium falciparum [17]
  IC50: 2440 nM
Plasmodium falciparum [18]
  Activity: Active
Plasmodium falciparum [19]
  IC50: 1390 nM
Plasmodium falciparum [7]
  IC50: 1100 nM
Plasmodium falciparum [20]
  IC50: 1920 nM
Plasmodium falciparum [1]
  IC50: 3.42 µg/mL and 5.97 µM
[9]
  Activity: Non-toxic
Plasmodium falciparum [21]
  Activity: Active
Plasmodium falciparum [10]
  IC50: 2000 nM

## CC[C@@H](C)[C@@H](C(=O)N1CCOCC1)N1C(=O)c2ccccc2C1=O
Plasmodium falciparum [1]
  IC50: 20 µg/mL and 60.6 µM

## CC(C)[C@@H](C(=O)N1CCOCC1)N1C(=O)c2ccccc2C1=O
Plasmodium falciparum [1]
  IC50: 65 µg/mL and 206 µM

## CC(C)C[C@@H](C(=O)N1CCCCC1)N1C(=O)c2ccccc2C1=O
Plasmodium falciparum [1]
  IC50: 71.5 µg/mL and 218 µM

## CC(C)[C@@H](C(=O)N1CCN(C(=O)[C@H](C(C)C)N2C(=O)c3ccccc3C2=O)CC1)N1C(=O)c2ccccc2C1=O
Plasmodium falciparum [1]
  IC50: 9.2 µg/mL and 16.9 µM

## O=C([C@H](Cc1ccccc1)N1C(=O)c2ccccc2C1=O)N1CCCC1
[11]
  inhibition: Active
[12]
  inhibition: Active
[13]
  inhibition: Active
Plasmodium falciparum [1]
  IC50: 31.5 µg/mL and 87.6 µM

## O=C([C@H](Cc1ccccc1)N1C(=O)c2ccccc2C1=O)N1CCN(C(=O)[C@H](Cc2ccccc2)N2C(=O)c3ccccc3C2=O)CC1
[12]
  inhibition: Active
Plasmodium falciparum [1]
  IC50: 33.8 µg/mL and 52.7 µM

## CC(C)C[C@@H](C(=O)N1CCC(Cc2ccccc2)CC1)N1C(=O)c2ccccc2C1=O
Plasmodium falciparum [1]
  IC50: 18.5 µg/mL and 44.2 µM

## CC[C@H](C)[C@@H](C(=O)N1CCC(Cc2ccccc2)CC1)N1C(=O)c2ccccc2C1=O
Plasmodium falciparum [1]
  IC50: 22.5 µg/mL and 53.8 µM

## CC[C@@H](C)[C@@H](C(=O)N1CCCC1)N1C(=O)c2ccccc2C1=O
Plasmodium falciparum [1]
  IC50: 46 µg/mL and 146 µM
